Source: PubChem BioAssay (NCI)
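Exposure lasted 48 hours, with cells grown in 96-well plates and compounds tested at five concentrations. Here, GI50 denotes the concentration required for 50% inhibition of growth. Definition used: TGI = concentration required for complete inhibition of growth.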

Tests used:
Assay in all cases: inhibition of tumour cell growth, NCI panel, 48 h
[1] = system: 786-0 renal
[2] = system: A498 renal
[3] = system: A549 NSCLC
[4] = system: ACHN renal
[5] = system: BT-549 breast
[6] = system: CAKI-1 renal
[7] = system: CCRF-CEM leukemia
[8] = system: COLO 205 colon
[9] = system: DU-145 prostate
[10] = system: HCC-2998 colon
[11] = system: HCT-116 colon
[12] = system: HCT-15 colon
[13] = system: HL-60(TB) leukemia
[14] = system: HOP-62 NSCLC
[15] = system: HOP-92 NSCLC
[16] = system: HS 578T breast
[17] = system: HT29 colon
[18] = system: IGROV1 ovarian
[19] = system: K-562 leukemia
[20] = system: KM12 colon
[21] = system: LOX IMVI melanoma
[22] = system: M14 melanoma
[23] = system: MALME-3M melanoma
[24] = system: MCF7 breast
[25] = system: MDA-MB-231 breast
[26] = system: MDA-MB-435
[27] = system: MOLT-4 leukemia
[28] = system: NCI-H226 lung
[29] = system: NCI-H23 lung
[30] = system: NCI-H460 lung
[31] = system: NCI-H522 lung
[32] = system: NCI/ADR-RES ovarian
[33] = system: OVCAR-3 ovarian
[34] = system: OVCAR-4 ovarian
[35] = system: OVCAR-5 ovarian
[36] = system: OVCAR-8 ovarian
[37] = system: PC-3 prostate
[38] = system: RPMI-8226 leukemia
[39] = system: RXF 393 renal
[40] = system: SF-268 CNS
[41] = system: SF-295 CNS
[42] = system: SF-539 CNS
[43] = system: SK-MEL-2 melanoma
[44] = system: SK-MEL-28 melanoma
[45] = system: SK-MEL-5 melanoma
[46] = system: SK-OV-3 ovarian
[47] = system: SN12C renal
[48] = system: SNB-19 CNS
[49] = system: SNB-75 CNS
[50] = system: SR leukemia
[51] = system: SW-620 colon
[52] = system: T-47D breast
[53] = system: TK-10 renal
[54] = system: U251 CNS
[55] = system: UACC-257 melanoma
[56] = system: UACC-62 melanoma
[57] = system: UO-31 renal

Structure (SMILES): O=[N+]([O-])c1ccc(N2CCN(Cc3ccccc3)CC2)c2c1no[n+]2[O-]
- GI50 [1]: 1720 nM
- TGI [1]: 3180 nM
- GI50 [2]: 1520 nM
- TGI [2]: 4350 nM
- GI50 [3]: 1500 nM
- TGI [3]: 3190 nM
- GI50 [4]: 850 nM
- TGI [4]: 2200 nM
- GI50 [5]: 1930 nM
- TGI [5]: 3780 nM
- GI50 [6]: 1420 nM
- TGI [6]: 3480 nM
- GI50 [7]: 155 nM
- TGI [7]: 2490 nM
- GI50 [8]: 1480 nM
- TGI [8]: 3040 nM
- GI50 [9]: 1570 nM
- TGI [9]: 2980 nM
- GI50 [10]: 1780 nM
- TGI [10]: 3330 nM
- GI50 [11]: 950 nM
- TGI [11]: 2380 nM
- GI50 [12]: 805 nM
- TGI [12]: 2460 nM
- GI50 [13]: 473 nM
- TGI [13]: 2990 nM
- GI50 [14]: 1220 nM
- TGI [14]: 2770 nM
- GI50 [15]: 1070 nM
- TGI [15]: 2360 nM
- GI50 [16]: 2320 nM
- TGI [16]: 7990 nM
- GI50 [17]: 829 nM
- TGI [17]: 2120 nM
- GI50 [18]: 951 nM
- TGI [18]: 2660 nM
- GI50 [19]: 1050 nM
- TGI [19]: 2980 nM
- GI50 [20]: 1480 nM
- TGI [20]: 3050 nM
- GI50 [21]: 558 nM
- TGI [21]: 1670 nM
- GI50 [22]: 1800 nM
- TGI [22]: 3520 nM
- GI50 [23]: 1600 nM
- TGI [23]: 3300 nM
- GI50 [24]: 803 nM
- TGI [24]: 2440 nM
- GI50 [25]: 1560 nM
- TGI [25]: 3080 nM
- GI50 [26]: 1720 nM
- TGI [26]: 3380 nM
- GI50 [27]: 194 nM
- TGI [27]: 2390 nM
- GI50 [28]: 1570 nM
- TGI [28]: 3460 nM
- GI50 [29]: 1980 nM
- TGI [29]: 5680 nM
- GI50 [30]: 1610 nM
- TGI [30]: 3520 nM
- GI50 [31]: 682 nM
- TGI [31]: 2160 nM
- GI50 [32]: 2270 nM
- TGI [32]: 12300 nM
- GI50 [33]: 1520 nM
- TGI [33]: 2960 nM
- GI50 [34]: 1370 nM
- TGI [34]: 3070 nM
- GI50 [35]: 4150 nM
- TGI [35]: 8770 nM
- GI50 [36]: 1590 nM
- TGI [36]: 5250 nM
- GI50 [37]: 1250 nM
- TGI [37]: 2700 nM
- GI50 [38]: 1760 nM
- TGI [38]: 4640 nM
- GI50 [39]: 1310 nM
- TGI [39]: 2760 nM
- GI50 [40]: 1420 nM
- TGI [40]: 3220 nM
- GI50 [41]: 1380 nM
- TGI [41]: 2840 nM
- GI50 [42]: 1540 nM
- TGI [42]: 3000 nM
- GI50 [43]: 2220 nM
- TGI [43]: 4760 nM
- GI50 [44]: 3560 nM
- TGI [44]: 9070 nM
- GI50 [45]: 1730 nM
- TGI [45]: 3730 nM
- GI50 [46]: 1980 nM
- TGI [46]: 4890 nM
- GI50 [47]: 1630 nM
- TGI [47]: 3530 nM
- GI50 [48]: 2230 nM
- TGI [48]: 6510 nM
- GI50 [49]: 954 nM
- TGI [49]: 2260 nM
- GI50 [50]: 75.1 nM
- TGI [50]: 973 nM
- GI50 [51]: 1200 nM
- TGI [51]: 3050 nM
- GI50 [52]: 1410 nM
- TGI [52]: 3890 nM
- GI50 [53]: 1750 nM
- TGI [53]: 3230 nM
- GI50 [54]: 1240 nM
- TGI [54]: 2650 nM
- GI50 [55]: 1680 nM
- TGI [55]: 3860 nM
- GI50 [56]: 1480 nM
- TGI [56]: 3400 nM
- GI50 [57]: 1280 nM
- TGI [57]: 2590 nM
